Paper PMC9343874, “Comparative Pharmacokinetics of Cinobufacini Capsule and Injection by UPLC-MS/MS” (Frontiers in Pharmacology, 2022)
Like-named read-outs stand apart in the source and are kept apart here.

How the values were obtained:
[1] = Pharmacokinetic study in rats after oral administration of cinobufacini capsule (UPLC-MS/MS of plasma); format: in vivo, rat; conditions: for AUC(0-inf) / AUC(0-t) / Cmax / Tmax / CL/F / MRT last / MRT inf / half-life / Vd/F: male, Sprague-Dawley, in vivo, rat plasma, mean ± SD, n = 6; for CL/F: read-out: CLz/F (converted); for MRT last: read-out: MRT0-t; for MRT inf: read-out: MRT0-∞; for half-life: read-out: T1/2z (converted); for Vd/F: read-out: Vz/F
How it was run: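 Male SD rats (200–220 g), fasted 12 h, six per group; cinobufacini capsule given orally at three doses or injection intravenously. Retro-orbital plasma sampled 0.05–10 h, extracted with ethyl acetate plus internal standard, quantified by UPLC-MS/MS (ESI+, MRM); parameters calculated by non-compartmental-style software as mean ± SD.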

[2] = Pharmacokinetic study in rats after intravenous administration of cinobufacini injection (UPLC-MS/MS of plasma); format: in vivo, rat; conditions: for concentrations in most rat plasma samples relative to LLOQ: after intravenous administration of cinobufacini injection, pharmacokinetic parameters could not be calculated; for detection in rat plasma: cinobufacini injection group, intravenous
Protocol: Male Sprague–Dawley rats (weighing 200–220 g) of SPF grade were offered by Sippr/BK laboratory Animal, Corp., Ltd. (Shanghai, China) and fed in the Laboratory Animal Center of the Shanghai University of Traditional Chinese Medicine. All the rats were kept under environmentally controlled conditions with constant temperature (22–24°C) and humidity (60–65%). The animal experiment program in the present research was approved by the Animal Committee of the Shanghai University of Traditional Chinese Medicine (PZSHUTCM210618012).
An Agilent 1290 liquid chromatographic system includes a G4220A quaternary pump, a G1326C column incubator, a G4226A automatic sampler, and a G1330B degasser. The column temperature was set to 35°C. A measure of 5 µL of samples were separated in an Agilent SB-C18 column (2.1 mm ×50 mm, 1.8 μm) and eluted at 0.3 ml/min, followed by gradient elution with water (0.1% V/V formic acid) (A) and acetonitrile (B) (0–1 min, 20%–20% B; 1–3.5 min, 20%–80% B; 4–4.1 min, 80%-20% B; 4.1–6 min, 20% B). The total run time was 6 minutes.
An Agilent 1290 Infinity series UPLC system was combined with an Agilent 6460 series triple quadrupole mass spectrometer (Agilent Technologies, Santa Clara, CA, United States) to quantify all 13 analytes in an ESI-positive ionization mode. Quantitative analysis was performed in an MRM mode. The mass spectrum conditions were as follows: capillary voltage, 4000V; drying gas (N2), gas flow rate: 10 L/min; sprayer, 30 psi; gas temperature 350°C; The delta EMV (+) 200 V; collision gas (N2); dwell time, 25 ms. Agilent’s MassHunter Workstation software was used for data collection, peak area calculation, and quantitative analysis.
A measure of 50 µL of the plasma sample was mixed with 10 µL of the internal standard solution (345 ng/ml) in a 1.5-ml centrifuge tube and vortexed for 5 min. The samples were extracted by 500 µL of ethyl acetate for 5 min and centrifuged at 4°C for 10 min (18000 rpm). All the supernatants were collected into another 1.5-ml centrifuge tube, dried under a gentle stream of nitrogen at 37°C, and then added with 50 µL of 80% methanol for resolution. The resolution samples were centrifuged at 4°C for 10 min (18000 rpm), and 5 µL supernatant was extracted and injected for analysis.
Twenty-four male Sprague–Dawley rats (weigh 200–220 g) were divided into four groups with six rats in each group randomly, including three capsule groups at three different doses and one injection group. In the instructions for cinobufacini capsule and injection, the clinical dosage for adults is 2 g per 70 kg orally and 20 ml per 70 kg intravenously, converting to rat doses of 180 mg/kg and 1.8 ml/kg, respectively.
In the pre-experiments, we compared cinobufacini capsule of 180 mg/kg (one-time clinical dose) and 900 mg/kg (five times of clinical dose) and Cinobufacini injection of 1.8 ml/kg, but concentrations of some compounds in plasma were too low and difficult to be quantified. […] The experimental rats were led to fast the night and were free to get access to water for 12 h before the pharmacokinetic study. After administration, blood samples (approximately 150 μL) of rats were collected via retro-orbital sinus into heparinized centrifuge tubes at 0.05, 0.083, 0.25, 0.5, 0.75, 1, 2, 4, 6, 8, and 10 h. After centrifugation at 5,000 rpm for 10 min, the plasma was transferred to 1.5-ml polypropylene tubes and stored at −80°C until UPLC-MS/MS analysis.
GraphPad Prism software (version 8.0.2) was used to draw the mean plasma concentration–time curves of all analytes. The pharmacokinetic parameters were calculated by DAS 3.2.8 software. Meanwhile, the pharmacokinetic data on rats were presented as mean ± standard deviation (SD). Differences of pharmacokinetic parameters between groups were analyzed by the t-test using SPSS software (version 26.0). Differences were considered significant statistically when the p-values were <0.05 and very significant statistically when the p-values were <0.01.

[3] = Stability of analytes in rat plasma QC samples under storage conditions; format: physicochemical; conditions: n = 6; for Stability during 24 h at 4°C, RE: post-treatment storage in autosampler; for −80°C for 30 days, RE / Three freeze–thaw cycles, RE: rat plasma; for −80°C for 30 days, RE: long-term; for Three freeze–thaw cycles, RE: −80°C to room temperature
How it was run: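 QC samples at low, medium and high levels (n=6) were tested after 24 h in the autosampler at 4 °C, after three freeze–thaw cycles from −80 °C to room temperature, and after 30 days at −80 °C. Concentrations were read from daily calibration curves. Stability was accepted when RE and RSD were within ±15% of nominal.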

[4] = oral cinobufacini capsule 0.9 g/kg (low)
[5] = oral cinobufacini capsule 1.8 g/kg (medium)
[6] = oral cinobufacini capsule 3.6 g/kg (high)
[7] = high QC level (249.58–250.28 ng/ml)
[8] = medium QC level (49.92–50.06 ng/ml)

Row | Structure (SMILES) | AUC(0-inf) [1, 4] [ng·h/mL] | AUC(0-t) [1, 4] [ng·h/mL] | Cmax [1, 4] [ng/mL] | Tmax [1, 4] [h] | CL/F [1, 4] [mL/min/kg] | MRT last [1, 4] [h] | MRT inf [1, 4] [h] | half-life [1, 4] [h] | Vd/F [1, 4] [L/kg] | AUC(0-inf) [1, 5] [ng·h/mL] | AUC(0-t) [1, 5] [ng·h/mL] | Cmax [1, 5] [ng/mL] | Tmax [1, 5] [h] | CL/F [1, 5] [mL/min/kg] | MRT last [1, 5] [h] | MRT inf [1, 5] [h] | half-life [1, 5] [h] | Vd/F [1, 5] [L/kg] | AUC(0-inf) [1, 6] [ng·h/mL] | AUC(0-t) [1, 6] [ng·h/mL] | also measured
1 | C[C@]12CC[C@H](O)C[C@H]1CC[C@@H]1[C@@H]2CC[C@]2(C)[C@@H](c3ccc(=O)oc3)CC[C@]12O [BF, bufalin] | 143 ± 79.4 | 139 ± 71.9 | 74.7 ± 30.7 | 0.25 | 26.2 | 2.04 ± 0.62 | 2.19 ± 0.9 | 1.09 ± 0.91 | 1.81 ± 0.56 | 317 ± 134 | 310 ± 131 | 189 ± 43.2 | 0.43 ± 0.12 | 21.5 | 1.45 ± 0.24 | 1.59 ± 0.49 | 1.2 ± 0.62 | 2.15 ± 1.21 | 461 ± 90.4 | 457 ± 91.2 | Cmax [1, 6]: 322 ± 55.5 ng/mL; Tmax [1, 6]: 0.46 ± 0.17 h; CL/F [1, 6]: 27.3 mL/min/kg; MRT last [1, 6]: 1.39 ± 0.43 h; MRT inf [1, 6]: 1.49 ± 0.55 h; half-life [1, 6]: 1.27 ± 0.72 h; Vd/F [1, 6]: 3.02 ± 2.01 L/kg; time to reach maximum plasma concentration (Cmax) ([1]; rats, after gavage administration of cinobufacini capsule): ≤ 60 min; concentrations in most rat plasma samples relative to LLOQ [2]: far below the LLOQs; detection in rat plasma [2]: could be detected; Stability during 24 h at 4°C, RE [3, 7]: −8.5%; Stability during 24 h at 4°C, RE ([3]; low QC level (4.99–5.00 ng/ml)): 3.3%; Stability during 24 h at 4°C, RE [3, 8]: −8.6%; −80°C for 30 days, RE [3, 7]: 1.4%; −80°C for 30 days, RE ([3]; low QC level (4.99–5.00 ng/ml)): 8.7%; −80°C for 30 days, RE [3, 8]: −12.6%; Three freeze–thaw cycles, RE [3, 7]: 0.8%; Three freeze–thaw cycles, RE ([3]; low QC level (4.99–5.00 ng/ml)): −7.7%; Three freeze–thaw cycles, RE [3, 8]: −10.1%
2 | C[C@]12CC[C@H](O)C[C@H]1CC[C@@H]1[C@@H]2C(=O)[C@@H](O)[C@]2(C)[C@@H](c3ccc(=O)oc3)CC[C@]12O [PBG, pseudobufarenogin] | 13.8 ± 5.4 | 13.3 ± 4.42 | 9.3 ± 3.04 | 0.25 | 33.5 | 2.4 ± 0.63 | 2.76 ± 1 | 1.52 ± 0.98 | 7.15 ± 2.16 | 28.6 ± 6.25 | 28.4 ± 6.26 | 24.5 ± 7.32 | 0.4 ± 0.22 | 30.8 | 1.49 ± 0.08 | 1.54 ± 0.11 | 1.03 ± 0.61 | 2.65 ± 1.51 | 47.7 ± 9.78 | 47.3 ± 9.4 | Cmax [1, 6]: 42.8 ± 10.2 ng/mL; Tmax [1, 6]: 0.32 ± 0.12 h; CL/F [1, 6]: 36.7 mL/min/kg; MRT last [1, 6]: 1.47 ± 0.39 h; MRT inf [1, 6]: 1.57 ± 0.39 h; half-life [1, 6]: 1.96 ± 0.67 h; Vd/F [1, 6]: 5.65 ± 1.61 L/kg; concentrations in most rat plasma samples relative to LLOQ [2]: far below the LLOQs; detection in rat plasma [2]: could be detected; Stability during 24 h at 4°C, RE [3, 7]: 10.2%; Stability during 24 h at 4°C, RE ([3]; low QC level (4.99–5.00 ng/ml)): 6.6%; Stability during 24 h at 4°C, RE [3, 8]: 12.0%; −80°C for 30 days, RE [3, 7]: 4.7%; −80°C for 30 days, RE ([3]; low QC level (4.99–5.00 ng/ml)): 8.3%; −80°C for 30 days, RE [3, 8]: 7.5%; Three freeze–thaw cycles, RE [3, 7]: 7.7%; Three freeze–thaw cycles, RE ([3]; low QC level (4.99–5.00 ng/ml)): 4.4%; Three freeze–thaw cycles, RE [3, 8]: 13.3%
